SMILES strings stand for the structures.

One assay deals with T1, hQ23 (HEK-293 cell line stably transfected with one of the members of the KCNQ family) (Homo sapiens, UniProt O43525+O43526).
T1 construct: expressed in transfected cells; host or cells: HEK-293, stably transfected
T1 sequence (O43526 whole entry): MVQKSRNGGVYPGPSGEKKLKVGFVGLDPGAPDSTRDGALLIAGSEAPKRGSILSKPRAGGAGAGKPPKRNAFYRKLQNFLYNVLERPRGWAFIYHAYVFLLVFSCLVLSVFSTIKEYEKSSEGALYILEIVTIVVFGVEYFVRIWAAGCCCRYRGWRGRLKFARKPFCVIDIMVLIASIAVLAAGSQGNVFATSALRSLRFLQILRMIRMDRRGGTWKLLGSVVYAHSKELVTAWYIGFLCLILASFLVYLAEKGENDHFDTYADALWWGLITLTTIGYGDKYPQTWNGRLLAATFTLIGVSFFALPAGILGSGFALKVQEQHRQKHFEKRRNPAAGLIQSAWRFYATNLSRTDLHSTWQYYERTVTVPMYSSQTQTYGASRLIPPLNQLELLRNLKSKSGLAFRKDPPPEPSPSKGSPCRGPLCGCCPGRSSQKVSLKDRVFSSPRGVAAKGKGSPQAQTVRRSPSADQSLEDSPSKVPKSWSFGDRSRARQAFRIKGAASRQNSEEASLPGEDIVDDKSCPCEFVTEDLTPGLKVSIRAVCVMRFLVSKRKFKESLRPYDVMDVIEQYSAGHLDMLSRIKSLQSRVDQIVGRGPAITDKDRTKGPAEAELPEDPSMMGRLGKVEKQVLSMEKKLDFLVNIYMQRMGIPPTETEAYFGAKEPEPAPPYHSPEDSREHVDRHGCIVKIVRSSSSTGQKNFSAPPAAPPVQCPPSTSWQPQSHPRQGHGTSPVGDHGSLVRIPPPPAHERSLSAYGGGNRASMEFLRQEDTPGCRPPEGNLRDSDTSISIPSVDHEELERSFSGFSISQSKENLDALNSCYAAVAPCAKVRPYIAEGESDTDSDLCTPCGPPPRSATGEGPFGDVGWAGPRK
T1 sequence (O43525 whole entry): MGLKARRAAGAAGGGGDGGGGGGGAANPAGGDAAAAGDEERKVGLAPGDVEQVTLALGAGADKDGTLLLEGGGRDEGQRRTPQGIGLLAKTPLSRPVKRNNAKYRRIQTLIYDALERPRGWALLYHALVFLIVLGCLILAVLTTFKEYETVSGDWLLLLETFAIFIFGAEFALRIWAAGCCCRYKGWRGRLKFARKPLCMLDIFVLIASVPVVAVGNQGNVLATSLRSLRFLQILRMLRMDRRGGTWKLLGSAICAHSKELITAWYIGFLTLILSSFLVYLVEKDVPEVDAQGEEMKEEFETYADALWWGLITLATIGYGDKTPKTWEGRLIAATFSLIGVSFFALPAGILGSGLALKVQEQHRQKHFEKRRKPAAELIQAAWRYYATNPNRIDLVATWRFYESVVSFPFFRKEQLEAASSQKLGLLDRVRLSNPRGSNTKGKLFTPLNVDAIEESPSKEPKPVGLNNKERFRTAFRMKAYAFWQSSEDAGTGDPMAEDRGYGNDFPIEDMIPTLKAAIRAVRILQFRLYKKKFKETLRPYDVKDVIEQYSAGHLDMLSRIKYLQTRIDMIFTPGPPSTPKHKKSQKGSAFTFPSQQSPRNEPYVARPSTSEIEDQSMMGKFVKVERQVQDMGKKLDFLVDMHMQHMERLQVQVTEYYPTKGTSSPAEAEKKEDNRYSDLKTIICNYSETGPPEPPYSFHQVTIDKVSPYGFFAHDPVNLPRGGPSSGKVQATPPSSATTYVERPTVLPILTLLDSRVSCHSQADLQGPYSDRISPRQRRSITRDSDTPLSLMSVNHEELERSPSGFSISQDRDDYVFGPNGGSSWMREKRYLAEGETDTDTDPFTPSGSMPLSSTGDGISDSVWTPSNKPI
The assay can be described thus: Thallium flux assay for KCNQ channel blockers (FLIPR, BTC dye). The assay is classed as cell-based. Particulars: Table 3; thallium flux, HEK-293. The method in brief: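 HEK-293 cells stably expressing a KCNQ member, loaded with BTC-AM (2 μM) in chloride-free buffer, pH 7.3; compounds added at 1% DMSO, then Tl2SO4 stimulus on FLIPR (488/540 nm, 60 s). Minimal active concentration set at ≥4 SD above negative control; IC50 from 10-point 1:3 series, single-site logistic fit versus the positive-control blocker.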
As a reminder, the EC50 is the concentration giving half of the maximal effect. `O=C(NCc1cccc2ccccc12)c1cnc(N2CCCC2)nc1C1(c2ccc(Cl)cc2)CCC1` [Example 61, 5-pyrimidinecarboxamide, 4-[1-(4-chlorophenyl)cyclobutyl]-N-(1-naphthalenylmethyl)-2-(1-pyrrolidinyl)-] yielded an EC50 of 79 nM.

Still in this assay, the particulars now being: hQ23 cells, thallium flux.
`CN1CCN(c2ncc(C(=O)N(C)Cc3ccccc3)c(C3(c4ccc(Cl)cc4)CCCC3)n2)CC1` [Example 139, 5-pyrimidinecarboxamide, 4-[1-(4-chlorophenyl)cyclopentyl]-N-methyl-2-(4-methyl-1-piperazinyl)-N-(phenylmethyl)-]: it took 70 nM to reach a half-maximal effect (EC50).

Regarding `CCC(C)Nc1ncc(C(=O)NCc2cc(F)cc(C(F)(F)F)c2)c(C2(c3ccccc3)CCCC2)n1` (stereo not drawn) [Example 128, 5-pyrimidinecarboxamide, N-[[3-fluoro-5-(trifluoromethyl)phenyl]methyl]-2-[(1-methylpropyl)amino]-4-(1-phenylcyclopentyl)-], a half-maximal response (EC50) required 10 nM.

Turning to `CC1CCC(Nc2ncc(C(=O)NC(C)c3cccc4ccccc34)c(C3(c4ccccc4)CCCC3)n2)CC1` (stereo not drawn) [Example 95, 5-pyrimidinecarboxamide, 2-[(4-methylcyclohexyl)amino]-N-[1-(1-naphthalenyl)ethyl]-4-(1-phenylcyclopentyl)-], the midpoint of the response, the EC50, lay at 64 nM.

Consider `CCC(C)Nc1ncc(C(=O)N(CC)Cc2ccccc2)c(C2(c3ccc(F)cc3)CCCC2)n1` (stereo not drawn) [Example 231, 5-pyrimidinecarboxamide, N-ethyl-4-[1-(4-fluorophenyl)cyclopentyl]-2-[(1-methylpropyl)amino]-N-(phenylmethyl)-], for which the EC50 worked out at 786 nM.

`CC1CCN(c2ncc(C(=O)NC(C)c3cccc4ccccc34)c(C3(c4ccccc4)CCCC3)n2)CC1` (stereo not drawn) [Example 98, 5-pyrimidinecarboxamide, 2-(4-methyl-1-piperidinyl)-N-[1-(1-naphthalenyl)ethyl]-4-(1-phenylcyclopentyl)-] registered an EC50 of 15 nM.

For the molecule `CCC(C)Nc1ncc(C(=O)NC(C)c2ccc(F)cc2)c(C2(c3ccc(Cl)cc3)CCCC2)n1` (stereo not drawn) [Example 200, 5-pyrimidinecarboxamide, 4-[1-(4-chlorophenyl)cyclopentyl]-N-[1-(4-fluorophenyl)ethyl]-2-[(1-methylpropyl)amino]-], the midpoint of the response, the EC50, lay at 911 nM.

As for `CC(NC(=O)c1cnc(N2CCN(C)CC2)nc1C1(c2ccc(Cl)cc2)CCCC1)c1cccc2ccccc12` (stereo not drawn) [Example 159, 5-pyrimidinecarboxamide, 4-[1-(4-chlorophenyl)cyclopentyl]-2-(4-methyl-1-piperazinyl)-N-[1-(1-naphthalenyl)ethyl]-], the EC50 came to 643 nM.

Take `CCN(C)C(=O)c1cnc(N2CCCC(C)C2)nc1C1(c2ccc(F)cc2)CCCC1` (stereo not drawn) [Example 226, 5-pyrimidinecarboxamide, N-ethyl-4-[1-(4-fluorophenyl)cyclopentyl]-N-methyl-2-(3-methyl-1-piperidinyl)-]: the EC50 amounted to 505 nM.

The same assay, now with this note: hQ23 cells, thallium flux assay.
`O=C(NCc1ccc(Cl)cc1Cl)c1cnc(N2CCCC2)nc1C1(c2ccc(F)cc2)CCCC1` [Example 261, 5-pyrimidinecarboxamide, N-[(2,4-dichlorophenyl)methyl]-4-[1-(4-fluorophenyl)cyclopentyl]-2-(1-pyrrolidinyl)-] registered an EC50 of 28 nM.

`CC1CCCN(c2ncc(C(=O)NCc3ccc(Cl)c(Cl)c3)c(C3(c4ccc(F)cc4)CCCC3)n2)C1` (stereo not drawn) [Example 255, 5-pyrimidinecarboxamide, N-[(3,4-dichlorophenyl)methyl]-4-[1-(4-fluorophenyl)cyclopentyl]-2-(3-methyl-1-piperidinyl)-] registered an EC50 of 10 nM.

Consider `CN1CCC(N(C)c2ncc(C(=O)NCc3ccc(F)cc3F)c(C3(c4ccc(F)cc4)CCCC3)n2)CC1` [Example 271, 5-pyrimidinecarboxamide, N-[(2,4-difluorophenyl)methyl]-4-[1-(4-fluorophenyl)cyclopentyl]-2-[methyl(1-methyl-4-piperidinyl)amino]-], for which the concentration for a half-maximal effect (EC50) came out at 532 nM.

For the origin of these results see patent publication US7091202B2, “4-arylspirocycloalkyl-2-aminopyrimidine carboxamide KCNQ potassium channel modulators” (Bristol-Myers Squibb Company, priority 2004, dated 2006).
